According to PubChem BioAssay AID328 (DTP/NCI, 2004):
Where “and” joins values, the source holds several entries; their conditions need not be identical. Equal entries are not always repeated. Toxic doses and inconclusive results are not listed.

System: BDF1 mice, P388 leukemia ip, median survival T/C
Experiment: NCI In Vivo Anticancer Drug Screen. Data for tumor model P388 Leukemia (intraperitoneal) in B6D2F1 (BDF1) mice
Conditions: endpoint: median survival time, higher = longer survival
Procedure, shortened: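 Each value expresses how treatment altered survival: treated-mouse outcome over vehicle-mouse outcome, both groups bearing the transplanted tumour.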

[1] = dose: 100.0 mg/kg/injection, schedule: Q01DX009 (ip), vehicle: Klucel (hydroxypropylcellulose) (HPC)
[2] = dose: 200.0 mg/kg/injection, schedule: Q01DX009 (ip), vehicle: Klucel (hydroxypropylcellulose) (HPC)
[3] = dose: 400.0 mg/kg/injection, schedule: Q01DX009 (ip), vehicle: Klucel (hydroxypropylcellulose) (HPC)
[4] = dose: 100.0 mg/kg/injection, schedule: Q01DX009 (ip), vehicle: saline with Tween-80
[5] = dose: 200.0 mg/kg/injection, schedule: Q01DX009 (ip), vehicle: saline with Tween-80
[6] = dose: 400.0 mg/kg/injection, schedule: Q01DX009 (ip), vehicle: saline with Tween-80
[7] = dose: 50.0 mg/kg/injection, schedule: Q01DX009 (ip), vehicle: saline with Tween-80
[8] = dose: 100.0 mg/kg/injection, schedule: Q04DX003 (ip), vehicle: saline with Tween-80
[9] = dose: 200.0 mg/kg/injection, schedule: Q04DX003 (ip), vehicle: saline with Tween-80
[10] = dose: 400.0 mg/kg/injection, schedule: Q04DX003 (ip), vehicle: saline with Tween-80
[11] = dose: 12.5 mg/kg/injection, schedule: Q01DX009 (ip), vehicle: Klucel (hydroxypropylcellulose) (HPC)
[12] = dose: 100.0 mg/kg/injection, schedule: Q04DX003 (ip), vehicle: Klucel (hydroxypropylcellulose) (HPC)
[13] = dose: 200.0 mg/kg/injection, schedule: Q04DX003 (ip), vehicle: Klucel (hydroxypropylcellulose) (HPC)
[14] = dose: 400.0 mg/kg/injection, schedule: Q04DX003 (ip), vehicle: Klucel (hydroxypropylcellulose) (HPC)

O=CC(=O)c1ccc(O)cc1
T/C (dose: 50.0 mg/kg/injection, schedule: Q04DX003 (ip), vehicle: saline sonified): 109 % of control
T/C (dose: 300.0 mg/kg/injection, schedule: Q04DX003 (ip), vehicle: saline with Tween-80): 86 % of control

CCc1ccccc1OS(=O)(=O)c1ccc([N+](=O)[O-])cc1
T/C (dose: 100.0 mg/kg/injection, schedule: Q01DX009 (ip), vehicle: saline sonified): 88 % of control
T/C (dose: 200.0 mg/kg/injection, schedule: Q01DX009 (ip), vehicle: saline sonified): 88 % of control
T/C (dose: 400.0 mg/kg/injection, schedule: Q01DX009 (ip), vehicle: saline sonified): 94 % of control

CC1C/C=C2\CSC(NC(=O)/C3=C\N(C/C=C/C=C/C(O)CC(O)CC(=O)N3)C2=O)C(=O)O1 (stereo not given)
T/C [1]: 91 % of control
T/C [2]: 100 % of control
T/C [3]: 91 % of control

OC1(C2(O)CCCC2)CCCC1
T/C [4]: 109 % of control
T/C [5]: 95 % of control
T/C [6]: 100 % of control

CC(C)CCCC(C)C1CCC2C3CC=C4CC([Se][As](C)C)CCC4(C)C3CCC12C (stereo not given)
T/C [7]: 118 % of control
T/C [4]: 111 % of control

COc1cc([N+](=O)[O-])c(C)cc1Nc1ccc(OC)c(OC)c1
T/C [7]: 100 % of control
T/C [4]: 103 % of control and 106 % of control
T/C [8]: 100 % of control
T/C [5]: 87 % of control and 94 % of control
T/C [9]: 100 % of control
T/C [6]: 97 % of control and 100 % of control
T/C [10]: 90 % of control

CC1CNCC(C)N1C(=O)c1ccccc1 (stereo not given)
T/C (dose: 0.1 mg/kg/injection, schedule: Q01DX009 (ip), vehicle: water): 96 % of control
T/C (dose: 0.2 mg/kg/injection, schedule: Q01DX009 (ip), vehicle: water): 105 % of control
T/C (dose: 0.4 mg/kg/injection, schedule: Q01DX009 (ip), vehicle: water): 115 % of control
T/C (dose: 0.78 mg/kg/injection, schedule: Q04DX003 (ip), vehicle: water): 97 % of control
T/C (dose: 1.56 mg/kg/injection, schedule: Q04DX003 (ip), vehicle: water): 104 % of control
T/C (dose: 3.12 mg/kg/injection, schedule: Q04DX003 (ip), vehicle: water): 104 % of control
T/C (dose: 6.25 mg/kg/injection, schedule: Q04DX003 (ip), vehicle: water): 88 % of control

CN(Cc1cnc2nc(N)nc(N)c2n1)c1ccc(C(=O)NC(CCC(=O)O)C(=O)O)cc1Br (stereo not given)
T/C (dose: 0.35 mg/kg/injection, schedule: Q01DX009 (ip), vehicle: saline): 231 % of control
T/C (dose: 0.7 mg/kg/injection, schedule: Q01DX009 (ip), vehicle: saline): 259 % of control
T/C (dose: 13.2 mg/kg/injection, schedule: Q04DX003 (ip), vehicle: saline with Tween-80): 250 % of control

C[C@]12CCC(=O)C=C1CC[C@@H]1[C@@H]2[C@@H](O)C[C@@]2(C)[C@H]1CC[C@]2(O)C(=O)COC(=O)CCC1CCCC1
T/C [11]: 118 % of control
T/C (dose: 25.0 mg/kg/injection, schedule: Q01DX009 (ip), vehicle: Klucel (hydroxypropylcellulose) (HPC)): 113 % of control
T/C (dose: 50.0 mg/kg/injection, schedule: Q01DX009 (ip), vehicle: Klucel (hydroxypropylcellulose) (HPC)): 100 % of control
T/C [12]: 123 % of control
T/C [13]: 109 % of control
T/C [14]: 109 % of control

O=C1c2ccccc2C(=O)N1CCC[P+](c1ccccc1)(c1ccccc1)c1ccccc1
T/C (dose: 1.56 mg/kg/injection, schedule: Q01DX009 (ip), vehicle: Klucel (hydroxypropylcellulose) (HPC)): 102 % of control
T/C [11]: 151 % of control

CC(O)c1ccc(-c2ccccc2)cc1 (stereo not given)
T/C [1]: 120 % of control
T/C [12]: 95 % of control
T/C [2]: 105 % of control
T/C [13]: 100 % of control
T/C [3]: 110 % of control
T/C [14]: 100 % of control

CCNC(C)(C)C(SSS)c1ccco1 (stereo not given)
T/C (dose: 100.0 mg/kg/injection, schedule: Q04DX003 (ip), vehicle: gum acacia): 100 % of control and 116 % of control
T/C (dose: 134.0 mg/kg/injection, schedule: Q01DX009 (ip), vehicle: gum acacia): 100 % of control
T/C (dose: 200.0 mg/kg/injection, schedule: Q04DX003 (ip), vehicle: gum acacia): 109 % of control
T/C (dose: 400.0 mg/kg/injection, schedule: Q04DX003 (ip), vehicle: gum acacia): 91 % of control and 122 % of control

CCOC(=O)c1cc([N+](=O)[O-])c(C)s1
T/C (dose: 100.0 mg/kg/injection, schedule: Q01DX009 (sc), vehicle: olive oil, sesame oil, peanut oil): 100 % of control
T/C (dose: 100.0 mg/kg/injection, schedule: Q04DX003 (sc), vehicle: olive oil, sesame oil, peanut oil): 95 % of control
T/C (dose: 200.0 mg/kg/injection, schedule: Q01DX009 (sc), vehicle: olive oil, sesame oil, peanut oil): 91 % of control
T/C (dose: 200.0 mg/kg/injection, schedule: Q04DX003 (sc), vehicle: olive oil, sesame oil, peanut oil): 95 % of control
T/C (dose: 400.0 mg/kg/injection, schedule: Q01DX009 (sc), vehicle: olive oil, sesame oil, peanut oil): 100 % of control
T/C (dose: 400.0 mg/kg/injection, schedule: Q04DX003 (sc), vehicle: olive oil, sesame oil, peanut oil): 100 % of control

COC(=O)C1C(O)CCC2CN3CCc4c([nH]c5ccccc45)C3CC21 (stereo not given)
T/C (dose: 25.0 mg/kg/injection, schedule: Q01DX009 (ip), vehicle: saline): 88 % of control
T/C [7]: 105 % of control
T/C (dose: 50.0 mg/kg/injection, schedule: Q01DX009 (ip), vehicle: saline): 88 % of control
T/C [4]: 119 % of control
T/C (dose: 100.0 mg/kg/injection, schedule: Q01DX009 (ip), vehicle: saline): 110 % of control
T/C (dose: 200.0 mg/kg/injection, schedule: Q01DX009 (ip), vehicle: saline): 118 % of control

COC(=O)Nc1nc2ccc(C(=O)c3ccccc3)cc2[nH]1
T/C (dose: 10.0 mg/kg/injection, schedule: Q04DX003 (ip), vehicle: other): 106 % of control
T/C (dose: 30.0 mg/kg/injection, schedule: Q04DX003 (ip), vehicle: saline with Tween-80): 173 % of control
T/C (dose: 35.0 mg/kg/injection, schedule: Q04DX003 (ip), vehicle: saline with Tween-80): 178 % of control

S=c1nc(-c2ccccc2)c(-c2ccccc2)n[nH]1
T/C (dose: 20.0 mg/kg/injection, schedule: Q01DX001 (ip), vehicle: other): 95 % of control
T/C (dose: 40.0 mg/kg/injection, schedule: Q01DX001 (ip), vehicle: other): 86 % of control
T/C (dose: 40.0 mg/kg/injection, schedule: Q04DX003 (ip), vehicle: saline with Tween-80): 104 % of control
T/C (dose: 75.0 mg/kg/injection, schedule: Q01DX001 (ip), vehicle: other): 122 % of control
T/C (dose: 75.0 mg/kg/injection, schedule: Q04DX003 (ip), vehicle: saline with Tween-80): 108 % of control
T/C (dose: 150.0 mg/kg/injection, schedule: Q01DX001 (ip), vehicle: other): 90 % of control
T/C (dose: 150.0 mg/kg/injection, schedule: Q04DX003 (ip), vehicle: saline with Tween-80): 116 % of control

COc1ccc2c(c1OC)CCN1C3=C(CC4(CC3)OCCO4)C(=O)CC21 (stereo not given)
T/C (dose: 100.0 mg/kg/injection, schedule: Q04DX003 (ip), vehicle: saline sonified): 105 % of control
T/C (dose: 200.0 mg/kg/injection, schedule: Q04DX003 (ip), vehicle: saline sonified): 100 % of control
T/C (dose: 400.0 mg/kg/injection, schedule: Q04DX003 (ip), vehicle: saline sonified): 90 % of control

CCOC(=O)c1c(OC(C)=O)cc2c(c1OC(C)=O)-c1ccccc1CC2
T/C [8]: 90 % of control
T/C [9]: 97 % of control
T/C [10]: 99 % of control

C/C(CC(=O)O)=C(\C)C(=O)O
T/C (dose: 25.0 mg/kg/injection, schedule: Q01DX009 (ip), vehicle: water): 100 % of control
T/C (dose: 50.0 mg/kg/injection, schedule: Q01DX009 (ip), vehicle: water): 100 % of control
T/C (dose: 100.0 mg/kg/injection, schedule: Q01DX001 (ip), vehicle: saline): 96 % of control
T/C (dose: 100.0 mg/kg/injection, schedule: Q01DX009 (ip), vehicle: water): 97 % of control and 103 % of control
T/C (dose: 100.0 mg/kg/injection, schedule: Q04DX003 (ip), vehicle: water): 108 % of control
T/C (dose: 200.0 mg/kg/injection, schedule: Q01DX001 (ip), vehicle: saline): 100 % of control
T/C (dose: 200.0 mg/kg/injection, schedule: Q01DX009 (ip), vehicle: water): 112 % of control
T/C (dose: 400.0 mg/kg/injection, schedule: Q01DX001 (ip), vehicle: saline): 100 % of control
T/C (dose: 400.0 mg/kg/injection, schedule: Q01DX009 (ip), vehicle: water): 105 % of control
